The NIST ThermoML archive (doi:10.1016/j.tca.2016.01.016)
Values joined by “and” are separate entries in the source; they are usually repeats but may differ in a detail not shown here. Identical values can stand only once.

Assay: molar heat capacity at constant pressure
Conditions: 101.33 kPa, Crystal, Small sample (50 mg) DSC

O=P([O-])([O-])[O-].[Dy+3] [dysprosium(III) phosphate]
Conditions	molar heat capacity at constant pressure
348.15 K	117.5 J/K/mol and 118.3 J/K/mol
353.15 K	119.1 J/K/mol and 119.4 J/K/mol
358.15 K	120.4 J/K/mol and 120.4 J/K/mol
363.15 K	121.5 J/K/mol and 121.3 J/K/mol
368.15 K	122.5 J/K/mol and 122.3 J/K/mol
373.15 K	123.3 J/K/mol and 123.2 J/K/mol
378.15 K	124.1 J/K/mol and 124.1 J/K/mol
383.15 K	124.9 J/K/mol and 124.9 J/K/mol
388.15 K	125.7 J/K/mol and 125.7 J/K/mol
393.15 K	126.4 J/K/mol and 126.5 J/K/mol
398.15 K	127.3 J/K/mol and 127.3 J/K/mol
403.15 K	128.1 J/K/mol and 128 J/K/mol
408.15 K	128.9 J/K/mol and 128.7 J/K/mol
413.15 K	129.6 J/K/mol and 129.4 J/K/mol
418.15 K	130.4 J/K/mol and 130.1 J/K/mol
423.15 K	131 J/K/mol and 130.8 J/K/mol
428.15 K	131.7 J/K/mol and 131.4 J/K/mol
433.15 K	132.3 J/K/mol and 132 J/K/mol
438.15 K	132.8 J/K/mol and 132.6 J/K/mol
443.15 K	133.4 J/K/mol and 133.2 J/K/mol
448.15 K	133.9 J/K/mol and 133.8 J/K/mol
453.15 K	134.5 J/K/mol and 134.3 J/K/mol
458.15 K	135 J/K/mol and 134.9 J/K/mol
463.15 K	135.5 J/K/mol and 135.4 J/K/mol
468.15 K	136.1 J/K/mol and 135.9 J/K/mol
473.15 K	136.6 J/K/mol and 136.4 J/K/mol
478.15 K	137 J/K/mol and 136.9 J/K/mol
483.15 K	137.4 J/K/mol and 137.4 J/K/mol
488.15 K	137.9 J/K/mol and 137.8 J/K/mol
493.15 K	138.3 J/K/mol and 138.3 J/K/mol
498.15 K	138.7 J/K/mol and 138.7 J/K/mol
503.15 K	139.1 J/K/mol and 139.1 J/K/mol
508.15 K	139.5 J/K/mol and 139.5 J/K/mol
513.15 K	139.9 J/K/mol and 140 J/K/mol
518.15 K	140.3 J/K/mol and 140.3 J/K/mol
523.15 K	140.7 J/K/mol and 140.7 J/K/mol
528.15 K	141 J/K/mol and 141.1 J/K/mol
533.15 K	141.3 J/K/mol and 141.5 J/K/mol
538.15 K	141.6 J/K/mol and 141.9 J/K/mol
543.15 K	142 J/K/mol and 142.2 J/K/mol
548.15 K	142.4 J/K/mol and 142.6 J/K/mol
553.15 K	142.7 J/K/mol and 142.9 J/K/mol
558.15 K	143 J/K/mol and 143.2 J/K/mol
563.15 K	143.4 J/K/mol and 143.6 J/K/mol
568.15 K	143.7 J/K/mol and 143.9 J/K/mol
573.15 K	143.9 J/K/mol and 144.2 J/K/mol
578.15 K	144.3 J/K/mol and 144.5 J/K/mol
583.15 K	144.6 J/K/mol and 144.8 J/K/mol
588.15 K	144.8 J/K/mol and 145.1 J/K/mol
593.15 K	145.1 J/K/mol and 145.4 J/K/mol
598.15 K	145.3 J/K/mol and 145.7 J/K/mol
603.15 K	145.6 J/K/mol and 145.9 J/K/mol
608.15 K	145.9 J/K/mol and 146.2 J/K/mol
613.15 K	146.1 J/K/mol and 146.5 J/K/mol
618.15 K	146.4 J/K/mol and 146.8 J/K/mol
623.15 K	146.7 J/K/mol and 147 J/K/mol
628.15 K	147 J/K/mol and 147.3 J/K/mol
633.15 K	147.3 J/K/mol and 147.5 J/K/mol
638.15 K	147.5 J/K/mol and 147.8 J/K/mol
643.15 K	147.8 J/K/mol and 148 J/K/mol
648.15 K	148 J/K/mol and 148.2 J/K/mol
653.15 K	148.2 J/K/mol and 148.5 J/K/mol
658.15 K	148.5 J/K/mol and 148.7 J/K/mol
663.15 K	148.8 J/K/mol and 148.9 J/K/mol
668.15 K	149.1 J/K/mol and 149.1 J/K/mol
673.15 K	149.3 J/K/mol and 149.3 J/K/mol
678.15 K	149.6 J/K/mol and 149.6 J/K/mol
683.15 K	149.9 J/K/mol and 149.8 J/K/mol
688.15 K	150.1 J/K/mol and 150 J/K/mol
693.15 K	150.4 J/K/mol and 150.2 J/K/mol
698.15 K	150.7 J/K/mol and 150.4 J/K/mol
703.15 K	150.9 J/K/mol and 150.6 J/K/mol
708.15 K	151.1 J/K/mol and 150.8 J/K/mol
713.15 K	151.4 J/K/mol and 151 J/K/mol
718.15 K	151.6 J/K/mol and 151.1 J/K/mol
723.15 K	151.8 J/K/mol and 151.3 J/K/mol
728.15 K	152 J/K/mol and 151.5 J/K/mol
733.15 K	152.1 J/K/mol and 151.7 J/K/mol
738.15 K	152.3 J/K/mol and 151.9 J/K/mol
743.15 K	152.5 J/K/mol and 152 J/K/mol
748.15 K	152.7 J/K/mol and 152.2 J/K/mol
753.15 K	152.9 J/K/mol and 152.4 J/K/mol
758.15 K	152.9 J/K/mol and 152.5 J/K/mol
763.15 K	153.1 J/K/mol and 152.7 J/K/mol
768.15 K	153.3 J/K/mol and 152.9 J/K/mol
773.15 K	153.4 J/K/mol and 153 J/K/mol
778.15 K	153.4 J/K/mol and 153.2 J/K/mol
783.15 K	153.6 J/K/mol and 153.3 J/K/mol
788.15 K	153.5 J/K/mol
793.15 K	153.7 J/K/mol and 153.6 J/K/mol
798.15 K	153.8 J/K/mol
803.15 K	154 J/K/mol and 153.9 J/K/mol
808.15 K	154.1 J/K/mol
813.15 K	154.2 J/K/mol
818.15 K	154.3 J/K/mol and 154.4 J/K/mol
823.15 K	154.4 J/K/mol and 154.5 J/K/mol
828.15 K	154.5 J/K/mol and 154.6 J/K/mol
833.15 K	154.5 J/K/mol and 154.8 J/K/mol
838.15 K	154.6 J/K/mol and 154.9 J/K/mol
843.15 K	154.8 J/K/mol and 155 J/K/mol
848.15 K	154.9 J/K/mol and 155.2 J/K/mol
853.15 K	154.9 J/K/mol and 155.3 J/K/mol
858.15 K	155 J/K/mol and 155.4 J/K/mol
863.15 K	155.1 J/K/mol and 155.6 J/K/mol
868.15 K	155.2 J/K/mol and 155.7 J/K/mol
